The text below walks through data of US5118665A, “Anti-oxidative and anti-inflammatory metal:peptide complexes and uses thereof” (ProCyte Corporation, priority 1990, dated 1992).

Where two headings read alike, the source gives them in different places.

What all share (type): biochemical
In assay [1] the test system is liposomes prepared from rat liver lipids. Nature of the assay: Inhibition of ferritin and superoxide anion dependent lipid peroxidation (MDA formation). Conditions: peptide:metal 1:1; for RATE nmole MDA/min/ml: incubations as Example 18, no addition = 0.220 (A), 0.150 (B); for PERCENT INHIBITION: versus reaction with no additions. The procedure:
(§1) Iron release from ferritin was measured by incubating ferritin with 10 um of a metal:peptide complexes of the present invention and determining the amount of iron released. Reaction mixtures contained 0.33 mM xanthine, 25 mU/ml xanthine oxidase, and 90 U/ml catalase as described in Example 13. In addition, 200 uM ferritin was added as a source of iron and 150 uM bathophenanthroline disulfonate to chelate and released iron. The release of iron was measured as an increase in the absorption of 535 nm due to the ironbathophenanthroline complex. The data is presented in Table 6 as this absorption rate and as a percent inhibition of a reaction with no additions. All the metal:peptide complexes are at a molar ratio of peptide to metal of 1:1.
Lipid peroxidation was measured by determining the oxidation of lipids in liposomes prepared from rat liver lipids. Incubations were as described in Example 18 except that rat liver lipid […] were included. The oxidation was followed by determining the amount of malondialdehyde ("MDA") formed during the reaction. The data is presented in Table 7 as this absorption rate and as a percent inhibition of a reaction with no additions. All the metal:peptide complexes are at a molar ratio of peptide to metal of 1:1.

The next assay concerns ferritin. Description: Inhibition of ferritin iron release (bathophenanthroline disulfonate, A535). Conditions: 10 um complex, peptide:metal 1:1; for RATE INC. A535 nm min: 200 uM ferritin, no addition = 0.0060; for PERCENT INHIBITION: versus reaction with no additions. The procedure:
as §1

For another assay, the system named is superoxide anion. Nature of the assay: Superoxide dismutase mimetic activity, xanthine oxidase/NBT method. Conditions: for IC50: read-out: CONC. FOR 50% INHIB.; for CONC. FOR 50% INHIB.: Table 4, ratio 2:1 (binary) or 1:1:1 (ternary with chelating agent), ug copper(II) added per reaction. The procedure: The reactions contained the following: 100 uM xanthine, 56 uM NBT (nitro blue tetrazolium) 1 unit of catalase, and 50 mM potassium phosphate buffer, pH 7.8. The reaction was initiated by the addition of xanthine oxidase in sufficient quantity to obtain an increase in absorbance at 560 nm of approximately 0.025/min. in a total sample volume of 1.7 ml. The xanthine oxidase was prepared fresh daily and stored on ice until used. All the components of the reaction are added except the xanthine oxidase and the spectrophotometer was adjusted to zero at 560 nm. The reaction was initiated by the addition of the xanthine oxidase. All reagents were obtained from Sigma Chemical Co.
Measurements of the absorbance at 560 nm were taken at 1-2 minute intervals for at least 16 minutes following addition of xanthine oxidase. A control consisted of reactions containing no metal:peptide complex.
All complexes were tested at a 2:1 molar ratio of peptide to metal. It should be noted that the absolute value found in enzymatic assays for SOD mimetic activity varries depending upon the enzyme lot used in the evaluation. Thus, the inclusion of GHL-Cu permits comparisons from experiment to experiment based on a normalized activity relative to GHL-Cu.
In this example, superoxide dismutase was measured by the xanthine oxidase/NBT method as described in Example 13. Each complex was tested relative to GHL-Cu assayed at the same time. All complexes were tested at a 2:1 molar ratio of peptide to metal.
In this example, superoxide dismutase was measured by the xanthine oxidase/NBT method as described in Example 13. Each compound was tested relative to GHL-Cu assayed at the same time. All complexes were tested at a 2:1 molar ratio of peptide to metal.
In this example, superoxide dismutase was measured by the xanthine oxidase/NBT method as described in Example 13. Each compound was tested relative to GHL-Cu or glycyl-L-histidyl-L-lysyl-L-valyl-L-phenylalanyl-valine:copper(II) ("GHLVFV-Cu") assayed at the same time. In this example, the amount of complex for 50% inhibition is expressed as ug copper(II) added per reaction necessary to achieve 50% inhibition of the control reaction.
In this example, superoxide dismutase was measured by the xanthine oxidase/NBT method as described in Example 13. Each compound was tested relative to GHL-Cu assayed at the same time.

Setting [2] is: Table 2, GHL:Cu of the same experiment = 100, peptide:metal 2:1.
Setting [3] is: Table 2, peptide:metal 2:1, experiments A-G, each with its own GHL:Cu control.
Where [4] appears, read: Table 3, ratio 2:1, copper(II) versus manganese(II), experiments A, B.
Setting [5] is: Table 3, ratio 2:1, reference of the same experiment = 100.
The mark [6] stands for this setting: Table 1, GHL:Cu of the same experiment = 100, peptide:metal 2:1.
Setting [7] is: Table 1, peptide:metal 2:1, pH 7.8, experiments A-E, each with its own GHL:Cu control.
[8] abbreviates: Table 4 experiment A, GHL:Cu 2:1 = 100.
Setting [9] is: Table 5, GHL:Cu of the same experiment = 100, ratio 2:1.
[10] abbreviates: Table 5, ratio 2:1, albumin binding moieties, experiments A, B.
Setting [11] is: Table 4 experiment B, GHLVFV:Cu 2:1 = 100.

Consider “Lhistidyl-glycyl-L-lysine:copper(II) [HGL:Cu]”, for which, in assay [1], the “RATE nmole MDA/min/ml” value was 0.020 nmole MDA/min/ml and the “PERCENT INHIBITION” value came out at 87%. For the same substance, in the assay on ferritin, the “RATE INC. A535 nm min” value turned out to be 0.0008 A535 nm min and the “PERCENT INHIBITION” value is on record as 87%. Further, the “RELATIVE to GHL-Cu” value in the assay on superoxide anion (setting [2]) stood at 22300. The IC50 at superoxide anion (setting [3]) came to 0.3 µM.

For the substance “Lhistidyl-glycyl-L-lysine:manganese(II) [HGL:Mn]”, at superoxide anion (setting [4]), the IC50 was 2 µM. Moreover, in the assay on superoxide anion (setting [5]), the “RELATIVE to GHL-Cu” value came out at 2000.

For the substance “alanylL-histidyl-L-lysine:copper(II) [AHL:Cu]”, the “RELATIVE to GHL-Cu” value in the assay with superoxide anion (setting [2]) came out at 563. On superoxide anion (setting [3]), the IC50 stood at 6 µM.

For the substance “alanylL-histidyl-L-lysine:manganese(II) [AHL:Mn]”, on superoxide anion (setting [4]), the IC50 came to 6 µM. Moreover, the “RELATIVE to GHL-Cu” value in the assay on superoxide anion (setting [5]) was 667.

For “glycyl-L-histidyl-L-lysine n-octyl ester:copper(II) [GHL-Octyl Ester:Cu]”, in assay [1], the “RATE nmole MDA/min/ml” value turned out to be 0.060 nmole MDA/min/ml. Further, the “PERCENT INHIBITION” value in assay [1] is given as 73%; with ferritin it was 80%. Moreover, in the assay on ferritin, the “RATE INC. A535 nm min” value is reported as 0.0012 A535 nm min. Besides, the entries for the “RELATIVE to GHL-Cu” value with superoxide anion (setting [6]) and with superoxide anion (setting [5]) were 810 and 100, respectively. The IC50 on superoxide anion (setting [7]) came out at 7 µM; at superoxide anion (setting [4]), 11 µM.

Turning to “glycyl-L-histidyl-L-lysine:copper(II) [GHL:Cu, reference compound]”, the “RATE nmole MDA/min/ml” value in assay [1] is on record as 0.084 nmole MDA/min/ml. In addition, the “PERCENT INHIBITION” value in assay [1] came out at 62%; in the assay with ferritin it was 73%. Also, the “RATE INC. A535 nm min” value with ferritin is recorded as 0.0016 A535 nm min. For the same substance, the “RELATIVE to GHL-Cu” value in the assay with superoxide anion (setting [6]), in the assay with superoxide anion (setting [2]), in the assay on superoxide anion (setting [5]), with superoxide anion (setting [8]) and in the assay with superoxide anion (setting [9]) was 100 throughout. Besides, the “CONC. FOR 50% INHIB.” value on superoxide anion is on record as 3.2 ug copper(II) per reaction.

With “glycylL-(3-benzyl)-histidyl-L-lysine:copper(II) [G(3-Benzyl)HL:Cu]”, in the assay on superoxide anion (setting [2]), the “RELATIVE to GHL-Cu” value is recorded as 145. Also, the IC50 on superoxide anion (setting [3]) was found to be 33 µM.

Consider “glycylL-(3-methyl)-histidyl-L-lysine:copper(II) [G(3-Methyl)HL:Cu]”, for which, in assay [1], the “RATE nmole MDA/min/ml” value came out at 0.104 nmole MDA/min/ml and the “PERCENT INHIBITION” value is listed as 31%. Moreover, in the assay on ferritin, the “RATE INC. A535 nm min” value is reported as 0.0010 A535 nm min and the “PERCENT INHIBITION” value was 83%. Besides, in the assay on superoxide anion (setting [2]), the “RELATIVE to GHL-Cu” value came out at 616. Also, the IC50 at superoxide anion (setting [3]) was found to be 8 µM.

“glycylL-(3-methyl)-histidyl-L-lysyl-glycyl-L-tryptophan:copper(II) [G(3-Methyl)HLGW:Cu]”: the “RELATIVE to GHL-Cu” value in the assay on superoxide anion (setting [9]) is on record as 521. The IC50 on superoxide anion (setting [10]) was determined as 11 µM.

For the substance “glycylL-histidyl-L-lysine noctyl amide:copper(II) [GHL-Octyl Amide:Cu]”, in the assay with superoxide anion (setting [6]), the “RELATIVE to GHL-Cu” value was found to be 182. Besides, the IC50 at superoxide anion (setting [7]) came out at 17 µM.

With “glycylL-histidyl-L-lysine noctyl ester:manganese(II) [GHL-Octyl:Mn]”, the IC50 at superoxide anion (setting [4]) turned out to be 2 µM. The “RELATIVE to GHL-Cu” value with superoxide anion (setting [5]) came to 611.

Consider “glycylL-histidyl-L-lysine npalmityl ester:copper(II) [GHL-Palmityl Ester:Cu]”, for which the “RELATIVE to GHL-Cu” value in the assay on superoxide anion (setting [6]) is listed as 231. For the same substance, the IC50 at superoxide anion (setting [7]) stood at 24 µM.

“glycylL-histidyl-L-lysine:copper(II):histidine [GHL:Cu:H]”: the “CONC. FOR 50% INHIB.” value at superoxide anion is 0.2 ug copper(II) per reaction. Further, the “RELATIVE to GHL-Cu” value in the assay on superoxide anion (setting [8]) is 1600.

Consider “glycylL-histidyl-L-lysine:copper(II):imidazole [GHL:Cu:Im]”, for which the “CONC. FOR 50% INHIB.” value at superoxide anion was 1.3 ug copper(II) per reaction. For the same substance, the “RELATIVE to GHL-Cu” value with superoxide anion (setting [8]) is 246.

With “glycylL-histidyl-L-lysyl-L-alanyl-L-phenylalanyl-L-alanine:copper(II) [GHLAFA:Cu]”, in the assay on superoxide anion (setting [6]), the “RELATIVE to GHL-Cu” value is 561. Also, the IC50 at superoxide anion (setting [7]) came to 10 µM.

As for “glycylL-histidyl-L-lysyl-L-tryptophan:copper(II) [GHLW:Cu]”, in the assay with superoxide anion (setting [9]), the “RELATIVE to GHL-Cu” value was determined as 4700. On superoxide anion (setting [10]), the IC50 came to 1 µM.

“glycylL-histidyl-L-lysyl-L-valyl-L-phenylalanyl-L-valine:copper(II) [GHLVFV:Cu]”: in assay [1], the “RATE nmole MDA/min/ml” value is recorded as 0.140 nmole MDA/min/ml and the “PERCENT INHIBITION” value was found to be 36%. For the same substance, in the assay with ferritin, the “RATE INC. A535 nm min” value is reported as 0.0011 A535 nm min and the “PERCENT INHIBITION” value is given as 82%. Further, the “RELATIVE to GHL-Cu” value in the assay on superoxide anion (setting [6]) came out at 229. In addition, on superoxide anion (setting [7]), the IC50 came out at 23 µM. Also, the “CONC. FOR 50% INHIB.” value on superoxide anion is on record as 2.8 ug copper(II) per reaction. Moreover, the “RELATIVE to GHL-Cu” value with superoxide anion (setting [11]) stood at 100.

For the substance “glycylL-histidyl-L-lysyl-L-valyl-L-phenylalanyl-L-valine:copper(II):histiine [GHLVFV:Cu:H]”, the “CONC. FOR 50% INHIB.” value at superoxide anion is reported as 0.2 ug copper(II) per reaction. The “RELATIVE to GHL-Cu” value in the assay on superoxide anion (setting [11]) turned out to be 1400.

Consider “glycylL-histidyl-L-lysyl-L-valyl-L-phenylalanyl-L-valine:copper(II):imidaole [GHLVFV:Cu:Im]”, for which, at superoxide anion, the “CONC. FOR 50% INHIB.” value is recorded as 0.3 ug copper(II) per reaction. Also, the “RELATIVE to GHL-Cu” value in the assay with superoxide anion (setting [11]) is 930.

Turning to “glycylL-histidyl-cadaverine:copper(II) [GHCadaverine:Cu]”, the “RELATIVE to GHL-Cu” value with superoxide anion (setting [2]) came out at 118. Besides, the IC50 on superoxide anion (setting [3]) came out at 17 µM.

For “glycylL-lysyl-L-histidine:copper(II) [GLH:Cu]”, in the assay with superoxide anion (setting [2]), the “RELATIVE to GHL-Cu” value amounted to 75. Also, the IC50 on superoxide anion (setting [3]) was 20 µM.

As for “glycylL-lysyl-L-histidine:manganese(II) [GLH:Mn]”, the IC50 on superoxide anion (setting [4]) was 6 µM. Besides, the “RELATIVE to GHL-Cu” value in the assay with superoxide anion (setting [5]) came out at 2000.

“lysylL-histidyl-L-glycine amide:copper(II) [LHG-Amide:Cu]”: in the assay with superoxide anion (setting [2]), the “RELATIVE to GHL-Cu” value is reported as 21. At superoxide anion (setting [3]), the IC50 was 70 µM.

Take “lysylL-histidyl-L-glycine noctyl ester:copper(II) [LHG-Octyl Ester:Cu]”: the “RELATIVE to GHL-Cu” value with superoxide anion (setting [6]) is listed as 60. In addition, the IC50 on superoxide anion (setting [7]) worked out at 10 µM.

For the substance “lysylL-histidyl-caprolactam:copper(II) [GHCaprolactam:Cu]”, the “RELATIVE to GHL-Cu” value in the assay with superoxide anion (setting [2]) came out at 4500. The IC50 at superoxide anion (setting [3]) came out at 0.8 µM.

Take “lysylL-histidyl-glycyl-L-valyl-L-phenylalanyl-L-valine:copper(II) [LHGVFV:Cu]”: the “RELATIVE to GHL-Cu” value with superoxide anion (setting [6]) was 46. In addition, the IC50 on superoxide anion (setting [7]) stood at 13 µM.
